Experimental data: PubChem BioAssay AID1963846 (Molecular Pharmacology Branch, DTP, NCI, 2024)

Tested on: 454973-116-R2-J3-PDC complex spheroid viability
Assay: Anticancer human tumor 454973-116-R2-J3-PDC patient-derived pancreatic carcinoma cell line growth inhibition [POLQ]
Conditions: for IC50: curve of first compound; for viability, T/C: stronger effect = lower value
How it was run: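 Growth inhibition in 3D: complex spheroids (tumor PDC, HUVEC, MSC) treated with POLQ inhibitor combinations; where Cmax unknown, highest tested concentration 10 microM, except SN-38 at 1 microM.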

[1] = second compound 0.0316 µM, first compound 0.00316 µM
[2] = second compound 0.0316 µM, first compound 0.01 µM
[3] = second compound 0.0316 µM, first compound 0.0316 µM
[4] = second compound 0.0316 µM, first compound 0.1 µM
[5] = second compound 0.1 µM, first compound 0.00316 µM
[6] = second compound 0.1 µM, first compound 0.01 µM
[7] = second compound 0.1 µM, first compound 0.0316 µM
[8] = second compound 0.1 µM, first compound 0.1 µM
[9] = second compound 0.316 µM, first compound 0.00316 µM
[10] = second compound 0.316 µM, first compound 0.01 µM
[11] = second compound 0.316 µM, first compound 0.0316 µM
[12] = second compound 0.316 µM, first compound 0.1 µM
[13] = second compound 1 µM, first compound 0.00316 µM
[14] = second compound 1 µM, first compound 0.01 µM
[15] = second compound 1 µM, first compound 0.0316 µM
[16] = second compound 1 µM, first compound 0.1 µM
[17] = second compound 3.16 µM, first compound 0.00316 µM
[18] = second compound 3.16 µM, first compound 0.01 µM
[19] = second compound 3.16 µM, first compound 0.0316 µM
[20] = second compound 3.16 µM, first compound 0.1 µM
[21] = second compound 10 µM, first compound 0.00316 µM
[22] = second compound 10 µM, first compound 0.01 µM
[23] = second compound 10 µM, first compound 0.0316 µM
[24] = second compound 10 µM, first compound 0.1 µM
[25] = second compound 0.0316 µM, first compound 0.316 µM
[26] = second compound 0.0316 µM, first compound 1 µM
[27] = second compound 0.1 µM, first compound 0.316 µM
[28] = second compound 0.1 µM, first compound 1 µM
[29] = second compound 0.316 µM, first compound 0.316 µM
[30] = second compound 0.316 µM, first compound 1 µM
[31] = second compound 1 µM, first compound 0.316 µM
[32] = second compound 1 µM, first compound 1 µM
[33] = second compound 3.16 µM, first compound 0.316 µM
[34] = second compound 3.16 µM, first compound 1 µM
[35] = second compound 10 µM, first compound 0.316 µM
[36] = second compound 10 µM, first compound 1 µM
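Also: spheroids exposed to drugs for seven days before measurement.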
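For viability, T/C in this document: percent viability relative to DMSO vehicle control wells taken as 100%.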

SMILES: CC[C@@]1(O)C(=O)OCc2c1cc1n(c2=O)Cc2cc3c(CN(C)C)c(O)ccc3nc2-1 + Cc1cccc(N(C)C(=O)C2C(O)CCN2c2nc(C)cc(C(F)(F)F)c2C#N)c1
- IC50 (second compound 0.0316 µM): 18.7 nM
- IC50 (second compound 0.1 µM): 19.2 nM
- IC50 (second compound 0.316 µM): 18.1 nM
- IC50 (second compound 1 µM): 18.6 nM
- IC50 (second compound 3.16 µM): 16.8 nM
- IC50 (second compound 10 µM): 19.1 nM
- viability, T/C (second compound 0.0316 µM, first compound 0.000316 µM): 92.2%
- viability, T/C (second compound 0.0316 µM, first compound 0.001 µM): 102%
- viability, T/C [1]: 90.5%
- viability, T/C [2]: 85.3%
- viability, T/C [3]: 20.4%
- viability, T/C [4]: 16.1%
- viability, T/C (second compound 0.1 µM, first compound 0.000316 µM): 104%
- viability, T/C (second compound 0.1 µM, first compound 0.001 µM): 104%
- viability, T/C [5]: 99.8%
- viability, T/C [6]: 88.6%
- viability, T/C [7]: 20.2%
- viability, T/C [8]: 19.7%
- viability, T/C (second compound 0.316 µM, first compound 0.000316 µM): 98.3%
- viability, T/C (second compound 0.316 µM, first compound 0.001 µM): 118%
- viability, T/C [9]: 113%
- viability, T/C [10]: 83.9%
- viability, T/C [11]: 18.4%
- viability, T/C [12]: 16.5%
- viability, T/C (second compound 1 µM, first compound 0.000316 µM): 103%
- viability, T/C (second compound 1 µM, first compound 0.001 µM): 106%
- viability, T/C [13]: 97.1%
- viability, T/C [14]: 84.9%
- viability, T/C [15]: 19.6%
- viability, T/C [16]: 19.8%
- viability, T/C (second compound 3.16 µM, first compound 0.000316 µM): 116%
- viability, T/C (second compound 3.16 µM, first compound 0.001 µM): 106%
- viability, T/C [17]: 105%
- viability, T/C [18]: 76%
- viability, T/C [19]: 16.8%
- viability, T/C [20]: 19.8%
- viability, T/C (second compound 10 µM, first compound 0.000316 µM): 107%
- viability, T/C (second compound 10 µM, first compound 0.001 µM): 96.6%
- viability, T/C [21]: 97.3%
- viability, T/C [22]: 85.6%
- viability, T/C [23]: 21.3%
- viability, T/C [24]: 22.6%

SMILES: COc1cccc(OCCCN)c1-c1cc(Nc2cnc(C#N)cn2)n[nH]1 + Cc1cccc(N(C)C(=O)C2C(O)CCN2c2nc(C)cc(C(F)(F)F)c2C#N)c1
- IC50 (second compound 0.0316 µM): 17.8 nM
- IC50 (second compound 0.1 µM): 16 nM
- IC50 (second compound 0.316 µM): 16 nM
- IC50 (second compound 1 µM): 13.4 nM
- IC50 (second compound 3.16 µM): 13.2 nM
- IC50 (second compound 10 µM): 13.6 nM
- viability, T/C [1]: 109%
- viability, T/C [2]: 78.1%
- viability, T/C [3]: 21.9%
- viability, T/C [4]: 7.22%
- viability, T/C [25]: 5.75%
- viability, T/C [26]: 4.08%
- viability, T/C [5]: 95%
- viability, T/C [6]: 75.2%
- viability, T/C [7]: 13.4%
- viability, T/C [8]: 7.01%
- viability, T/C [27]: 6.2%
- viability, T/C [28]: 4.45%
- viability, T/C [9]: 102%
- viability, T/C [10]: 77.6%
- viability, T/C [11]: 10%
- viability, T/C [12]: 6.6%
- viability, T/C [29]: 5.64%
- viability, T/C [30]: 5.58%
- viability, T/C [13]: 104%
- viability, T/C [14]: 64.2%
- viability, T/C [15]: 8.06%
- viability, T/C [16]: 5.29%
- viability, T/C [31]: 5.1%
- viability, T/C [32]: 4.45%
- viability, T/C [17]: 112%
- viability, T/C [18]: 63%
- viability, T/C [19]: 9.04%
- viability, T/C [20]: 6.82%
- viability, T/C [33]: 5.92%
- viability, T/C [34]: 6.01%
- viability, T/C [21]: 98.6%
- viability, T/C [22]: 64.2%
- viability, T/C [23]: 11.1%
- viability, T/C [24]: 5.73%
- viability, T/C [35]: 6.26%
- viability, T/C [36]: 5.41%

SMILES: O=C(c1cc(Cc2n[nH]c(=O)c3ccccc23)ccc1F)N1CCN(C(=O)C2CC2)CC1 + Cc1cccc(N(C)C(=O)C2C(O)CCN2c2nc(C)cc(C(F)(F)F)c2C#N)c1
- IC50 (second compound 0.0316 µM): > 10000 nM
- IC50 (second compound 0.1 µM): > 10000 nM
- IC50 (second compound 0.316 µM): > 10000 nM
- IC50 (second compound 1 µM): > 10000 nM
- IC50 (second compound 3.16 µM): > 10000 nM
- IC50 (second compound 10 µM): > 10000 nM
- viability, T/C [3]: 99.8%
- viability, T/C [4]: 107%
- viability, T/C [25]: 95.3%
- viability, T/C [26]: 103%
- viability, T/C (second compound 0.0316 µM, first compound 3.16 µM): 98%
- viability, T/C (second compound 0.0316 µM, first compound 10 µM): 61.4%
- viability, T/C [7]: 94.7%
- viability, T/C [8]: 103%
- viability, T/C [27]: 103%
- viability, T/C [28]: 99.3%
- viability, T/C (second compound 0.1 µM, first compound 3.16 µM): 91.4%
- viability, T/C (second compound 0.1 µM, first compound 10 µM): 64.8%
- viability, T/C [11]: 99.1%
- viability, T/C [12]: 110%
- viability, T/C [29]: 106%
- viability, T/C [30]: 106%
- viability, T/C (second compound 0.316 µM, first compound 3.16 µM): 94.5%
- viability, T/C (second compound 0.316 µM, first compound 10 µM): 61%
- viability, T/C [15]: 105%
- viability, T/C [16]: 96.8%
- viability, T/C [31]: 109%
- viability, T/C [32]: 102%
- viability, T/C (second compound 1 µM, first compound 3.16 µM): 91.1%
- viability, T/C (second compound 1 µM, first compound 10 µM): 62%
- viability, T/C [19]: 108%
- viability, T/C [20]: 98.5%
- viability, T/C [33]: 104%
- viability, T/C [34]: 96.2%
- viability, T/C (second compound 3.16 µM, first compound 3.16 µM): 96.3%
- viability, T/C (second compound 3.16 µM, first compound 10 µM): 62.6%
- viability, T/C [23]: 108%
- viability, T/C [24]: 105%
- viability, T/C [35]: 102%
- viability, T/C [36]: 98.4%
- viability, T/C (second compound 10 µM, first compound 3.16 µM): 92%
- viability, T/C (second compound 10 µM, first compound 10 µM): 57.7%
